The data set can be described thus: Apparent permeability (Papp), bi-directional transport. Format: in vitro ADME. The note with it: pig, LLC-PK1, t=3 h, average of A to B and B to A, read-out: Papp LLC-PK1 cells. On the procedure: Assay for Determination of Apparent Permeability (Papp)
Bi-directional transport is evaluated in LLC-PK1 cells in order to determine apparent permeability (Papp). LLC-PK1 cells can form a tight monolayer and therefore can be used to assess vectorial transport of compounds from basolateral to apical (B→A) and from apical to basolateral (A→B).
To determine Papp, LLC-PK1 cells are cultured in 96-well transwell culture plates (Millipore). Solutions containing the test compounds (1 μM) are prepared in Hank's Balanced Salt Solution with 10 mM HEPES. Substrate solution (150 μL) is added to either the apical (A) or the basolateral (B) compartment of the culture plate, and buffer (150 μL) is added to the compartment opposite to that containing the compound. At t=3 h, 50 μL samples are removed from both sides of monolayers dosed with test compound and placed in 96 well plates, scintillant (200 μL) or internal standard (100 μL labetolol 1 μM) is added to the samples and concentration is determined by liquid scintillation counting in a MicroBeta Wallac Trilux scintillation counter (Perkin Elmer Life Sciences, Boston, Mass.) or by LCMS/MS (Applied Biosystems SCIEX API 5000 triple quadruple mass spectrometer). [^3H]Verapamil (1 μM) is used as the positive control. The experiment is performed in triplicate.
The apparent permeability, Papp, is calculated by the following formula for samples taken at t=3 h:
[formula] Where: Volume of Receptor Chamber is 0.15 mL; Area of membrane is 0.11 cm^2; the Initial Concentration is the sum of the concentration measured in the donor plus concentration measured in receiver compartments at t=3 h; A in Concentration is concentration in the receiver compartment at 3 h; and A in Time is the incubation time (3×60×60=10800 s). Papp is expressed as 10^−6 cm/s. The Papp (LLC-PK1 cells) are the average of the Papp for transport from A to B and Papp for transport from B to A at t=3 h: […]

One may read the Papp as the rate of passage across a membrane or cell layer, normalised by area and donor concentration. As for `CC(=O)NC[C@@H]1[C@@H](O)[C@H](O)[C@@H](CO)N1CCCc1ccc(-c2ccccc2)cc1` [Example 3, N-(((2R,3R,4R,5R)-1-(3-([1,1′-biphenyl]-4-yl)propyl)-3,4-dihydroxy-5-(hydroxymethyl)pyrrolidin-2-yl)methyl)acetamide], the Papp at 3 h, 1 μM was 5 ×10⁻⁶ cm/s.

For the origin of these results see patent US9809537B2, “Glycosidase inhibitors and uses thereof” (Alectos Therapeutics Inc., priority 2012, dated 2017).
